In one assay the target is Thrombin (UniProt P00735). Kind of assay: Determination of the inhibitory constants for thrombin (method of Stürzebecher et al. 1997). Format: biochemical. The text has this: The Ki values are the average of at least three determinations.
In another assay the target is T1, factor Xa (Bos taurus, UniProt P00743).
T1 construct: purchased Diagnostic Reagents Ltd, Thame, GB
Kind of assay: Determination of the inhibitory constants for factor Xa (chromogenic substrate Moc-D-Nle-Gly-Arg-pNA, Dixon method). In kind it is biochemical, bovine. The following applies: for Ki: bovine factor Xa, 25° C., pH 8.0, average of at least three determinations. The method, then: Determination of the inhibitory Effect
To determine the inhibitory effect, 200 μl of this buffer (0.05 M 0.154 M NaCl, 5% Ethanol, pH 8.0; contains the inhibitor), 25 μl of substrate (Moc-D-Nle-Gly-Arg-pNA in H2O; Pentapharm Ltd., Basle, Switzerland) and 50 μl of factor Xa (bovine, Diagnostic Reagents Ltd, thame, GB) were incubated at 25° C. After 3 min, the reaction was stopped By adding 25 μl of acetic acid (50%), and the absorption at 405 nm was determined using a Microplate Reader (MR 5000, Dynatech, Denkendorf, Germany). The Ki values were Founder by the Dixon method (boichem. J. 55, 170-171, 1953) by linear regression using a Computer program. The Ki values are the average of at least three determinations. The Thrombin inhibitions was determined in analogy to a method described earlier (Stürzebecher et al., J. Med. Chem. 40, 3091-3099, 1997).

Structures can show the parent of a compound that is named as a salt.

Broadly, the Ki is the equilibrium dissociation constant of an inhibitor or competing ligand from its target. Read a high Ki as weaker binding.

T1 sequence (P00743 234-492 limits assumed): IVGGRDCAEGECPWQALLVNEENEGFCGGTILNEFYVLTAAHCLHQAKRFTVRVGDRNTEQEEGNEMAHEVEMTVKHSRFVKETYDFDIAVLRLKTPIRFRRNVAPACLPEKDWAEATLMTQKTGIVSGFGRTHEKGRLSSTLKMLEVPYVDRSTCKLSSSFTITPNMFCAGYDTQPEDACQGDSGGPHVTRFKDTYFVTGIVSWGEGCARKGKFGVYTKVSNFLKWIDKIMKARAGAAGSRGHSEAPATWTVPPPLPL
T1 sequence (P00743 41-180 partner limits assumed): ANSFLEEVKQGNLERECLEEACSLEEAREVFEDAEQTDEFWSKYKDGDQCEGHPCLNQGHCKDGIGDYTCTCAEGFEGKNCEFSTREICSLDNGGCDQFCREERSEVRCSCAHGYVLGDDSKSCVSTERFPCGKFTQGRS

As to `N=C(N)c1ccc(CNC(=O)CNC(=O)C(CCc2cccnc2)NS(=O)(=O)Cc2ccccc2)cc1` (stereo not shown) [Compound 24], the inhibitory constant (Ki) on Thrombin is 2000 nM. Moreover, at factor Xa, the “selectivity ratio SR (SR = Ki thrombin/Ki factor Xa)” value (“selectivity ratio SR” for short) is reported as 400 and the Ki came to 5 nM.
At Thrombin, `N=C(N)c1ccc(CNC(=O)CNC(=O)[C@@H](CCc2ccccc2)NS(=O)(=O)Cc2ccccc2[N+](=O)[O-])cc1` [Compound 20] displayed a Ki of 1200 nM. Further, on factor Xa, the “selectivity ratio SR” value amounted to 46 and the affinity, expressed as Ki, was 26 nM.
Regarding `N=C(N)c1ccc(CNC(=O)[C@H](CO)NC(=O)C(CCc2ccncc2)NS(=O)(=O)Cc2ccncc2)cc1` (stereo partly drawn) [Compound 4, 4-PMs-D,L-homoAla(4-Pyr)-Ser-4Amba×3 acetate], the Ki at Thrombin is 6300 nM. Further, at factor Xa, the “selectivity ratio SR” value was 65 and the Ki was 97 nM.
In the same order, the values of `N=C(N)c1ccc(CNC(=O)CNC(=O)[C@@H](CCc2ccc(O)cc2)NS(=O)(=O)Cc2ccc([N+](=O)[O-])cc2)cc1` [Compound 36] are 860 nM, 165 and 5.2 nM.
On to `CC(C)(C)OC(=O)CC[C@H](NC(=O)[C@@H](CCc1ccc(O)cc1)NS(=O)(=O)Cc1ccc([N+](=O)[O-])cc1)C(=O)NCc1ccc(C(=N)N)cc1` [Compound 54], for which the Ki on Thrombin was 690 nM. On factor Xa, the “selectivity ratio SR” value is reported as 18 and the Ki came to 39 nM.
In the same order, the values of `N=C(N)c1ccc(CNC(=O)CNC(=O)C(CCc2ccccn2)NS(=O)(=O)Cc2ccccc2)cc1` (stereo not shown) [Compound 25] are 2000 nM, 952 and 2.1 nM.
On the same counts, the results for `N=C(N)c1ccc(CNC(=O)CNC(=O)[C@@H](CCc2ccccc2)NS(=O)(=O)Cc2ccc(N)cc2)cc1` [Compound 29] are 260 nM, 100 and 2.6 nM.
In the same order, the values of `N=C(N)c1ccc(CNC(=O)CNC(=O)[C@@H](CCc2ccccc2)NS(=O)(=O)Cc2ccc(O)cc2)cc1` [Compound 32] are 380 nM, 105 and 3.6 nM.
As to `CS(=O)(=O)N[C@H](CCc1ccccc1)C(=O)NCC(=O)NCc1ccc(C(=N)N)cc1` [Compound 62], the Ki at Thrombin came out at 1300 nM. Also, at factor Xa, the “selectivity ratio SR” value is 1.2 and affinity was put at a Ki of 1060 nM.
Regarding `CC(C)(C)OC(=O)CCC[C@H](NC(=O)[C@@H](CCc1ccccc1)NS(=O)(=O)Cc1ccccc1)C(=O)NCc1ccc(C(=N)N)cc1` [Compound 57], the Ki at Thrombin worked out at 460 nM. Further, on factor Xa, the “selectivity ratio SR” value was determined as 3.5 and the Ki was determined as 130 nM.
Regarding `N=C(N)c1ccc(CNC(=O)[C@H](CCC(=O)O)NC(=O)[C@@H](CCc2ccccc2)NS(=O)(=O)Cc2cccc([N+](=O)[O-])c2)cc1` [Compound 56], the Ki at Thrombin came to 13000 nM. Further, at factor Xa, the “selectivity ratio SR” value is on record as 156 and the Ki was 83 nM.
As to `N=C(N)c1ccc(CNC(=O)[C@H](CCCC(=O)O)NC(=O)[C@@H](CCc2ccccc2)NS(=O)(=O)Cc2ccccc2)cc1` [Compound 53], on Thrombin, the Ki was 800 nM. Further, at factor Xa, the “selectivity ratio SR” value came out at 27 and the Ki turned out to be 30 nM.
On to `N=C(N)c1ccc(CNC(=O)CNC(=O)[C@@H](CNc2ccncc2)NS(=O)(=O)Cc2ccccc2)cc1` [Compound 23], for which the Ki on Thrombin amounted to 2800 nM; at factor Xa, 22 nM. Further, the “selectivity ratio SR” value at factor Xa came to 127.
The compound `CC(C)(C)OC(=O)CN[C@H](CCc1ccccc1)C(=O)NCC(=O)NCc1ccc(C(=N)N)cc1` [Compound 63] displayed a Ki at Thrombin of 1500 nM. On factor Xa, the “selectivity ratio SR” value worked out at 2.4 and the affinity corresponds to a Ki of 620 nM.
On the same counts, the results for `COC(=O)Cc1ccc(CS(=O)(=O)N[C@H](CCc2ccccc2)C(=O)NCC(=O)NCc2ccc(C(=N)N)cc2)cc1` [Compound 16] are 1800 nM, 47 and 38 nM.
In the same order, the values of `N=C(N)c1ccc(CNC(=O)CNC(=O)[C@@H](CCc2ccc(O)cc2)NS(=O)(=O)Cc2ccc(N)cc2)cc1` [Compound 27] are 560 nM, 295 and 1.9 nM.
In the same order, the values of `COC(=O)Cc1ccc(CS(=O)(=O)NC(CCc2ccncc2)C(=O)NCC(=O)NCc2ccc(C(=N)N)cc2)cc1` (stereo not shown) [Compound 44] are 3800 nM, 463 and 8.2 nM.
Take `N=C(N)c1ccc(CNC(=O)[C@H](CO)NC(=O)[C@@H](CCc2ccc(O)cc2)NS(=O)(=O)Cc2ccccc2)cc1` [Compound 6, Bzls-d-homoTyr-Ser-4Amba×TFA]: the affinity at Thrombin, expressed as Ki, was 1400 nM. At factor Xa, the “selectivity ratio SR” value came out at 74 and the Ki was determined as 19 nM.
On the same counts, the results for `N=C(N)c1ccc(CNC(=O)[C@H](CCC(=O)NCc2ccccc2)NC(=O)[C@@H](CCc2ccncc2)NS(=O)(=O)Cc2ccccc2)cc1` [Compound 61] are 1700 nM, 250 and 6.8 nM.
Turning to `N=C(N)c1ccc(CNC(=O)CNC(=O)[C@@H](CCc2ccccc2)NS(=O)(=O)Cc2cccc(N)c2)cc1` [Compound 45], the Ki on Thrombin stood at 1400 nM. On factor Xa, the “selectivity ratio SR” value stood at 150 and affinity was put at a Ki of 9.3 nM.
At Thrombin, `N=C(N)c1ccc(CNC(=O)CNC(=O)[C@@H](CCc2ccccc2)NS(=O)(=O)Cc2ccc(CC(=O)O)cc2)cc1` [Compound 17] showed a Ki of 14000 nM. For the same compound, on factor Xa, the “selectivity ratio SR” value was 259 and the affinity, expressed as Ki, was 54 nM.
In the same order, the values of `N=C(N)c1ccc(CNC(=O)CNC(=O)[C@@H](CCc2ccccc2)NCC(=O)O)cc1` [Compound 64] are 28000 nM, 32 and 870 nM.
On the same counts, the results for `N=C(N)c1ccc(CNC(=O)CNC(=O)[C@@H](CCc2ccc(O)cc2)NS(=O)(=O)Cc2ccccc2)cc1` [Compound 5, Bzls-d-homoTyr-Gly-4Amba×TFA] are 1500 nM, 556 and 2.7 nM.
In the same order, the values of `N=C(N)c1ccc(CNC(=O)CNC(=O)[C@@H](CCc2ccccc2)NS(=O)(=O)Cc2cccnc2)cc1` [Compound 9, 3-PMs-dhomoPhe-Gly-4Amba×2 TFA] are 5900 nM, 95 and 62 nM.
For the compound `N=C(N)c1ccc(CNC(=O)[C@H](CCC(=O)O)NC(=O)[C@@H](CCc2ccncc2)NS(=O)(=O)Cc2ccc(N)cc2)cc1` [Compound 52], the Ki on Thrombin turned out to be 84000 nM; at factor Xa, 16 nM. For the same compound, the “selectivity ratio SR” value at factor Xa worked out at 5250.
In the same order, the values of `N=C(N)c1ccc(CNC(=O)[C@H](CCC(=O)O)NC(=O)[C@@H](CCc2ccc(O)cc2)NS(=O)(=O)Cc2ccccc2)cc1` [Compound 34] are 19000 nM, 3.7 nM and 5135.
In turn, `N=C(N)c1ccc(CNC(=O)CNC(=O)C(CCc2ccncc2)NS(=O)(=O)Cc2ccc(C(=O)O)cc2)cc1` (stereo not shown) [Compound 48] registered a Ki at factor Xa of 10 nM.

The values are drawn from patent US9090658B2, “Base-substituted benzylamine analogs for use as coagulation factor Xa inhibitors, the production and use thereof” (The Medicines Company (Leipzig) GmbH, priority 2003, dated 2015).
